Test results from patent US10239851B2 (priority 2014, dated 2019).
Where two headings read alike, the source gives them in different places.

What was measured:
[1] = rat plasma, 37° C.
Procedure: (§1) 0.1 ml samples were taken from each of the solutions, added respectively to 1 ml of blood plasma of rabbit (taken from New Zealand white rabbits, treated according to conventional methods, anticoagulated with heparin) or 1 ml of blood plasma of rat (taken from live SD rats, treated according to conventional methods, anticoagulated with heparin), homogeneously mixed, and placed in a thermostatic water bath at 37° C. for incubation with time being recorded. Samples were taken at different time points after the experiment began, and 2 ml of acetonitrile was immediately added. The samples were shaken and centrifuged for 5 min (15,000 rpm), and the supernatant was then taken for HPLC analysis.

[2] = rabbit plasma, 37° C.; for Sampling time/dissociation percent (%) 15 s / Sampling time/dissociation percent (%) 30 s: formula F derivatives; for Sampling time/dissociation percent (%) 15 S / Sampling time/dissociation percent (%) 30 S: formula G derivatives
Procedure: as §1

[3] = In vitro dissociation of the water soluble taxane derivatives in blood plasma of rat; format: in vitro ADME, SD rats; conditions: 37° C.
Procedure: The obtained water soluble taxane derivatives were formulated as 0.2 mg/ml aqueous solutions. […] After 2 min, 5 min and 10 min of incubation, 0.2 ml of solutions were respectively taken from each of the samples, and added to acetonitrile (0.4 ml) cooled to −20° C. for precipitation of protein.

[4] = tested on: human ovarian cancer SK-OV-3; conditions: 24 mg/kg (paclitaxel 16 mg/kg) D0-4 IV
Description: Test of the inhibitory activity of the water soluble paclitaxel derivatives on subcutaneously xenografted tumor of human ovarian cancer SK-OV-3 in nude mice: evaluating and comparing the inhibitory activity of the water soluble paclitaxel derivatives of the present invention, paclitaxel and Abraxane® on subcutaneously xenografted tumor of human ovarian cancer SK-OV-3 in nude mice.
Human ovarian cancer SK-OV-3 cells were subcutaneously inoculated to nude mice. After the tumor volume reached 100-150 mm^3, the animals were randomly divided into groups (D0), and administered with the water soluble paclitaxel derivatives of the present invention, paclitaxel, and Abraxane®, respectively once per day for 5 days. The tumor volume was measured 2-3 times per week, the animals were weighed and the data were recorded until day 22 (D22) after grouping.
The tumor volume (V) was calculated according to the equation: V=½×a×b^2, wherein a and b represent the length and the width, respectively.
T/C (%)=(T−T0)/(C−C0)×100, wherein T and C represent the tumor volume at the end of the experiment; and T0 and C0 represent the tumor volume at the beginning of the experiment.

[5] = In vitro dissociation of the water soluble taxane derivatives in blood plasma of rabbit; format: in vitro ADME, New Zealand white rabbits; conditions: 37° C.
Procedure: The obtained water soluble taxane derivatives were formulated as 0.2 mg/ml aqueous solutions. […] After 5 min, 20 min and 60 min of incubation, 0.2 ml of solutions were respectively taken from each of the samples, and added to acetonitrile (0.4 ml) cooled to −20° C. for precipitation of protein.

[6] = formula G derivatives, sampling time 15 s

Compound: CC(C)c1cccc(C(C)C)c1OC(=O)C(F)CCN(C)C.Cl (racemic) [Compound E1, Propofol 4-(N,N-dimethyl)amino-2(R,S)-fluorobutyrate Hydrochloride]
- dissociation percent ([1]; 5 s): 75.1%
- dissociation percent ([1]; 15 s): 83.2%
- dissociation percent ([1]; 30 s): 96.7%
- dissociation percent ([2]; 15 s): 67.5%
- dissociation percent ([2]; 30 s): 85.5%

Compound: CCN(C)CCC(F)C(=O)Oc1c(C(C)C)cccc1C(C)C.Cl (racemic) [Compound E4, propofol 4-(N-methyl-N-ethyl)amino-2(R,S)-2-fluorobutyrate hydrochloride]
- dissociation percent ([1]; 5 s): 70.2%
- dissociation percent ([2]; 15 s): 58.3%
- dissociation percent ([2]; 30 s): 70.4%

Compound: CC(C)NCC(CF)C(=O)Oc1c(C(C)C)cccc1C(C)C.CS(=O)(=O)O (racemic) [Compound E6, propofol 3-(N-isopropyl)amino-2(R,S)-2-monofluoromethylpropionate methanesulfonate]
- dissociation percent ([1]; 5 s): 24.2%
- dissociation percent ([1]; 15 s): 40.1%
- dissociation percent ([2]; 15 s): 27.1%
- dissociation percent ([2]; 30 s): 44.3%

Compound: CC(C)c1cccc(C(C)C)c1OC(=O)C(F)CCCCCC(=O)[O-].CC(C)c1cccc(C(C)C)c1OC(=O)C(F)CCCCCC(=O)[O-].[Ca+2] (racemic) [Compound F4, di[propofol 7-carboxyl-2(R,S)-fluorocaprylate] calcium salt]
- Sampling time/dissociation percent (%) 5 s ([1]; formula F derivatives): 63.8%
- Sampling time/dissociation percent (%) 15 s [2]: 48.3%
- Sampling time/dissociation percent (%) 30 s [2]: 61.7%

Compound: CC(C)c1cccc(C(C)C)c1OC(=O)C(CF)CCCCCCC(=O)[O-].CC(C)c1cccc(C(C)C)c1OC(=O)C(CF)CCCCCCC(=O)[O-].CC(C)c1cccc(C(C)C)c1OC(=O)C(CF)CCCCCCC(=O)[O-].[Al+3] (racemic) [Compound F6, tri[propofol 8-carboxyl-2(R,S)-monofluoromethylpelargonate] aluminum salt]
- Sampling time/dissociation percent (%) 5 s ([1]; formula F derivatives): 34.2%
- Sampling time/dissociation percent (%) 15 s ([1]; formula F derivatives, sampling time 15 s): 55.7%
- Sampling time/dissociation percent (%) 15 s [2]: 37.1%
- Sampling time/dissociation percent (%) 30 s [2]: 58.3%

Compound: CC(C)c1cccc(C(C)C)c1OC(=O)C(F)CCOP(=O)([O-])[O-].[K+].[K+] (racemic) [Compound G1, {1-[4-(2,6-diisopropylphenoxy)-4-oxo-3-(R,S)-3-fluoro-1-butyl]} phosphate monoester dipotassium salt]
- Sampling time/dissociation percent (%) 5 S ([1]; formula G derivatives): 54.1%
- Sampling time/dissociation percent (%) 15 S [1, 6]: 67.4%
- Sampling time/dissociation percent (%) 30 S ([1]; formula G derivatives, sampling time 30 s): 86.9%
- Sampling time/dissociation percent (%) 15 S [2]: 43.7%
- Sampling time/dissociation percent (%) 30 S [2]: 68.7%

Compound: CC(C)c1cccc(C(C)C)c1OC(=O)C(CF)CP(=O)([O-])[O-].CC(C)c1cccc(C(C)C)c1OC(=O)C(CF)CP(=O)([O-])[O-].CC(C)c1cccc(C(C)C)c1OC(=O)C(CF)CP(=O)([O-])[O-].[Al+3].[Al+3] (racemic) [Compound G6, tri[propofol 3-phosphoryl-2(R,S)-2-monofluoromethylpropionate] dialuminum salt]
- Sampling time/dissociation percent (%) 5 S ([1]; formula G derivatives): 22.1%
- Sampling time/dissociation percent (%) 15 S [1, 6]: 39.7%
- Sampling time/dissociation percent (%) 15 S [2]: 27.1%
- Sampling time/dissociation percent (%) 30 S [2]: 44.3%

Compound: CC(=O)O[C@H]1C(=O)[C@@]2(C)[C@H]([C@H](OC(=O)c3ccccc3)[C@]3(O)C[C@H](OC(=O)[C@H](OC(=O)C(F)CCN(C)C)[C@@H](NC(=O)c4ccccc4)c4ccccc4)C(C)=C1C3(C)C)[C@]1(OC(C)=O)CO[C@@H]1C[C@@H]2O.CS(=O)(=O)O (stereo partly drawn) [Compound C3, 2′-O-[4-(N,N-dimethyl)amino-2(R,S)-fluorobutyryl]paclitaxel methanesulfonate]
- dissociation percent ([3]; 2 min): 63.7%
- dissociation percent ([3]; 5 min): 96.8%
- dissociation percent ([3]; 10 min): 100%
- Weight change (%) D4 ([4]; D4): −6.0%
- T/C (%) D22 ([4]; D22): −64%
- Tumor volume (D22) ([4]; D22): 50.6 ± 9.7 mm^3
- Tumor inhibitory percent (%) D22 ([4]; D22, P=0.000 compared to the control): 165%
- dissociation percent ([5]; 5 min): 76.5%
- dissociation percent ([5]; 20 min): 94.6%
- dissociation percent ([5]; 60 min): 100%
